We go through five molecules from ChEMBL document CHEMBL1130836, “Anti-AIDS agents. 31. Synthesis and anti-HIV activity of 4-substituted 3',4'-di-O-(-)-camphanoyl-(+)-cis-khellactone (DCK) thiolactone analogs” (Bioorg Med Chem Lett, 1998).

Data set [1] is described as follows: Therapeutic index value was evaluated as the ratio of IC50/EC50. The conditions noted are these: read-out: TI.
Data set [2] relates to H9. In words: Anti-HIV activity was evaluated as the concentration required to inhibit the growth of uninfected H9 lymphocyte cells by 50%. In kind it is functional, cell-based. The conditions noted are these: Homo sapiens.
In data set [3] the test system is H9. Kind of data set: Anti-HIV activity was evaluated as the concentration required to inhibit HIV-1 replication in H9 lymphocyte cells by 50%. The conditions noted are these: Homo sapiens. In kind it is functional, cell-based.

Take `CC1(C)Oc2ccc3ccc(=O)oc3c2[C@@H](OC(=O)C23CCC(C)(C(=O)O2)C3(C)C)[C@H]1OC(=O)C12CCC(C)(C(=O)O1)C2(C)C` (stereo partly drawn): in data set [1], the selectivity ratio was determined as 137000.
Take `Cc1cc(=S)oc2c3c(ccc12)OC(C)(C)[C@H](OC(=O)C12CCC(C)(C(=O)O1)C2(C)C)[C@@H]3OC(=O)C12CCC(C)(C(=O)O1)C2(C)C` (stereo partly drawn): the 50% inhibitory concentration (IC50) (usually the concentration needed to halve the response being measured) with H9 [2] was > 153000 nM. In addition, the EC50 (commonly the midpoint of the concentration-response curve) in the data set with H9 [3] stood at 7.18 nM. The selectivity ratio in data set [1] was > 21300.
The corresponding values for `CC1(C)Oc2ccc3c(-c4ccccc4)cc(=S)oc3c2[C@@H](OC(=O)C23CCC(C)(C(=O)O2)C3(C)C)[C@H]1OC(=O)C12CCC(C)(C(=O)O1)C2(C)C` (stereo partly drawn) are > 140000 nM, 2480 nM and > 56.6.
The like results for `CCCc1cc(=S)oc2c3c(ccc12)OC(C)(C)[C@H](OC(=O)C12CCC(C)(C(=O)O1)C2(C)C)[C@@H]3OC(=O)C12CCC(C)(C(=O)O1)C2(C)C` (stereo partly drawn) were, in that order, > 148000 nM, 128 nM and > 1150.
The like results for `CC1(C)Oc2ccc3ccc(=S)oc3c2[C@@H](OC(=O)C23CCC(C)(C(=O)O2)C3(C)C)[C@H]1OC(=O)C12CCC(C)(C(=O)O1)C2(C)C` (stereo partly drawn) were, in that order, > 156000 nM, 29 nM and > 5390.
